From patent publication US7166622B2, “Substituted phenylsulfonamide inhibitors of beta amyloid production” (Wyeth, priority 2002, dated 2007)
Like-named read-outs stand apart in the source and are kept apart here.

Assays:
[1] = tested on: beta amyloid production; experiment: Repressor Release Assay (RRA); assay type: cell-based; conditions: for fold induction at 10 µg/mL / APPI Fold Increase / APPI % of Example #98: Conc 10 μg/ml; for fold induction at 10 µg/mL / fold induction at 20 µg/mL / fold induction at 3 µg/mL: read-out: APPI Fold Increase; for fold induction at 20 µg/mL: Conc 20 μg/ml; for APPI % of Example #98: relative to Example 98; for fold induction at 3 µg/mL: Conc 3 μg/ml
Method: CHO-K1 cells were cultured in whole DMEM media (DMEM—High Glucose with 10% fetal bovine serum, 1% Non-essential Amino Acids, and 1% Penicillin-Streptomycin) at 37° C. with 5% CO2. Two million cells were plated into 10-cm dishes 24 hrs prior to transfection.
Transient transfections were completed as recommended by Gibco BRL using their Lipofectamine Plus system. First, 6 μg of pRSVO-luc and 6 μg of APP-lacI construct DNA were added to 460 μL Opti-Mem transfection media and incubated with 30 μL Plus reagent for 15 minutes. Then, a lipid mixture of 40 μL Lipofectamine reagent and 460 μL Opti-Mem transfection media was incubated with the DNA-Plus reagent mixture for 15 minutes. During the DNA-lipid incubation, the CHO-K1 cells were washed once and covered in 5.0 mL DMEM media without Penicillin-Streptomycin. The DNA-lipid preparation was then layered onto these cells and incubated at 37° C. overnight.
[…] transfected cells per well (100 μL total volume) were plated into sterile, opaque Packard 96-well Culture-Plates in clear DMEM whole media (DMEM—without phenol red) and incubated at 37° C. with 5% CO2 for 3-5 hours.
Compounds were diluted using two different protocols; one protocol was used for compounds supplied neat (weighed powder in vial) and the other protocol was used for compounds supplied in solution (20 mM in DMSO in 96-well plates). For both protocols, 25 mM Hepes and 25 mM Hepes/1% DMSO were prepared fresh to be used as diluent. The Hepes/DMSO was used as the diluent control on all experimental plates.
The following table depicts the steps for compound dilution (please note that the last step was the addition of compound to cells/media in tissue culture plate).
Because some compounds were present in 96-well format at 20 mM, the following represents the protocol for their dilution (note that an average molecular weight of these compounds was used to calculate these dilutions and as above, the last step was the addition of compound to cells/media in tissue culture plate).
Once the compounds were diluted, they were applied in duplicate on cells in tissue culture plates (prepared above). Cells were incubated with compound at 37° C. with 5% CO2 for an additional 36-48 hours.
Luciferase assays (LucLite reagent, Packard) were performed and were read on a Packard TopCount instrument. Media was removed from each 96-well plate and replaced with 100 μL PBS per well (with Mg^2+ and Ca^2+). An equal volume (100 μL) of the LucLite lysis/substrate buffer was added to each well and the plates were sealed and mixed in the dark on a rotary shaker for 15-30 minutes at room temperature. Luciferase readings were then taken on the TopCount instrument. Measurements were expressed as relative light units (RLU) and are calculated and analyzed in MS Excel as follows: […]

[2] = tested on: CHO-K1 cells; experiment: Toxicity in RRA (loss of luciferase signal); conditions: toxicity = loss of signal (<0.75 fold increase)
Method: The beta amyloid inhibitory activity of the compounds of the present invention was determined using the Repressor Release Assay (RRA).
“Fold Increase” refers to the amount of luciferase activity (measured in relative light units) over diluent control. “SEM” refers to the standard error of the mean for fold increase.

[3] = luciferase activity over diluent control
[4] = luciferase activity (RLU) over diluent control
[5] = Conc 20 μg/ml, 1=non-toxic, 0=toxic

| Structure (SMILES) | fold induction at 10 µg/mL [1, 3] | (%)APPI Toxicity ([2]; Conc 10 μg/ml) | fold induction at 20 µg/mL [1, 3] | (%)APPI Toxicity ([2]; Conc 20 μg/ml) | further results |
| --- | --- | --- | --- | --- | --- |
| CCCCCC(O)[C@@H](NS(=O)(=O)c1ccc(Br)cc1)[C@@H](C)CC (stereo partly drawn) [Example 147, 4-bromo-N-{(1S)-2-hydroxy-1-[(1S)-1-methylpropyl]heptyl}benzenesulfonamide] | 1.94 | 1 (1=non-toxic) |  |  |  |
| COc1ccc([C@@H](C)[C@@H](CO)NS(=O)(=O)c2ccc(Cl)cc2)cc1 [Example 49, 4-Chloro-N-[(1S,2R)-1-(hydroxymethyl)-2-(4-methoxyphenyl)propyl]benzenesulfonamide] |  |  | 2.5 | 1 (1=non-toxic) |  |
| CC(C)[C@@](C)(CO)NS(=O)(=O)c1ccc(Cl)cc1 [Example 37, 4-chloro-N-[(1S)-1-(hydroxymethyl)-1,2-dimethylpropyl]benzenesulfonamide] |  |  | 4.7 | 1 (1=non-toxic) |  |
| CC[C@H](C)[C@H](NS(=O)(=O)c1ccc(Cl)cc1)C(O)(c1ccc(OC)cc1)c1ccc(OC)cc1 [Example 231, 4-chloro-N-((1S,2 S)-1-{hydroxy [bis(4-methoxyphenyl)]methyl}-2-methylbutyl)benzenesulfonamide] | 2.49 | 1 (1=non-toxic) |  |  |  |
| CC(C)[C@@H](CO)NS(=O)(=O)c1ccccc1F [Example 119, 2-fluoro-N-[(1S)-1-(hydroxymethyl)-2-methylpropyl]benzenesulfonamide] |  |  | 1.5 | 1 (1=non-toxic) |  |
| CC[C@H](C)[C@H](NS(=O)(=O)c1ccc(Br)cc1)C(O)c1ccc(Cl)cc1 (stereo partly drawn) [Example 155, 4-bromo-N-{(1S,2S)-1-[(4-chlorophenyl)(hydroxy)methyl]-2-methylbutyl}benzenesulfonamide] | 4.37 | 1 (1=non-toxic) |  |  |  |
| CC[C@H](C)[C@H](NS(=O)(=O)c1cccc(Cl)c1)C(O)(c1ccc(Cl)cc1)c1ccc(Cl)cc1 [Example 256, N-{(1S,2S)-1-[bis(4-chlorophenyl)(hydroxy)methyl]-2-methylbutyl}-3-chloro benzenesulfonamide] |  | 1 (1=non-toxic) |  |  | APPI Fold Increase [1, 3]: 1.5 fold; APPI % of Example #98 [1]: 55.91% |
| CC[C@H](C)[C@H](NS(=O)(=O)c1ccc(Cl)cc1)C(O)c1ccc(OC)cc1 (stereo partly drawn) [Example 178, 4-chloro-N-{(1S,2S)-1-[hydroxy(4-methoxyphenyl)methyl]-2-methylbutyl}benzenesulfonamide] | 1.68 | 1 (1=non-toxic) |  |  |  |
| CCCC(CO)NS(=O)(=O)c1ccc(Br)cc1 (stereo not drawn) [Example 104, 4-bromo-N-[1-(hydroxymethyl)butyl]benzenesulfonamide] |  |  | 1.5 | 1 (1=non-toxic) |  |
| CC[C@H](C)[C@H](NS(=O)(=O)c1ccc(F)cc1)C(O)(CC)CC [Example 242, N-{(1S)-2-ethyl-2-hydroxy-1-[(1S)-1-methylpropyl]butyl}-4-fluorobenzenesulfonamide] | 1.6 | 1 (1=non-toxic) |  |  |  |
| C=CCC(O)[C@@H](NS(=O)(=O)c1ccc(F)cc1)[C@@H](C)CC (stereo partly drawn) [Example 134, 4-fluoro-N-{(1S)-2-hydroxy-1-[(1S)-1-methylpropyl]-4-pentenyl}benzenesulfonamide] | 3 | 1 (1=non-toxic) |  |  | fold induction at 3 µg/mL [1, 3]: 1.5; (%)APPI Toxicity ([2]; Conc 3 μg/ml): 1 (1=non-toxic) |
| CC[C@H](C)[C@H](NS(=O)(=O)c1ccccc1F)C(O)c1ccc(OC)cc1 (stereo partly drawn) [Example 209, 2-fluoro-N-{(1S,2S)-1-[hydroxy(4-methoxyphenyl)methyl]-2-methylbutyl} benzenesulfonamide] |  | 1 (1=non-toxic) |  |  | APPI Fold Increase [1, 3]: 1.81 fold; APPI % of Example #98 [1]: 88.04% |
| C[C@@H](c1ccccc1)[C@@H](CO)NS(=O)(=O)c1ccc(Br)cc1 [Example 82, 4-bromo-N-[(1S,2S)-1-(hydroxymethyl)-2-phenylpropyl]benzenesulfonamide] |  |  |  |  | fold induction at 20 µg/mL [1, 4]: 2.6; (%)APPI Toxicity [2, 5]: 1 (1=non-toxic) |
| C=CC(O)[C@@H](NS(=O)(=O)c1ccc(Br)cc1)[C@@H](C)CC (stereo partly drawn) [Example 151, 4-bromo-N-{(1S)-2-hydroxy-1-[(1S)-1-methylpropyl]-3-butenyl}benzenesulfonamide] | 2.9 | 1 (1=non-toxic) |  |  |  |
| O=S(=O)(NC1(CO)CCCC1)c1ccc(Cl)cc1 [Example 103, 4-chloro-N-[1-(hydroxymethyl)cyclopentyl]benzenesulfonamide] |  |  | 2.6 | 1 (1=non-toxic) |  |
| CC[C@H](C)[C@H](NS(=O)(=O)c1ccc(F)cc1)C(O)c1cccc2ccccc12 (stereo partly drawn) [Example 144, 4-fluoro-N-{(1S,2S)-1-[hydroxy(1-naphthyl)methyl]-2-methylbutyl}benzenesulfonamide] | 1.69 | 1 (1=non-toxic) |  |  |  |
| C=CCC(O)[C@@H](NS(=O)(=O)c1ccc(Br)cc1)[C@@H](C)CC (stereo partly drawn) [Example 152, 4-bromo-N-{(1S)-2-hydroxy-1-[(1S)-1-methylpropyl]-4-pentenyl}benzenesulfonamide] | 6.64 | 1 (1=non-toxic) |  |  | fold induction at 3 µg/mL [1, 3]: 1.6; (%)APPI Toxicity ([2]; Conc 3 μg/ml): 1 (1=non-toxic) |
| CC[C@H](C)[C@H](NS(=O)(=O)c1ccccc1F)C(O)(c1ccc(OC)cc1)c1ccc(OC)cc1 [Example 269, 2-fluoro-N-((1S,2S)-1-{hydroxy[bis(4-methoxyphenyl)]methyl}-2-methylbutyl)benzenesulfonamide] | 1.58 | 1 (1=non-toxic) |  |  |  |
| CC[C@@H](c1ccccc1)[C@@H](CO)NS(=O)(=O)c1ccc(Br)cc1 [Example 83, 4-bromo-N-[(1S,2S)-1-(hydroxymethyl)-2-phenylbutyl]benzenesulfonamide] |  |  |  |  | fold induction at 20 µg/mL [1, 4]: 3.4; (%)APPI Toxicity [2, 5]: 1 (1=non-toxic) |
| C=CCC(O)(CC=C)[C@@H](NS(=O)(=O)c1ccc(Cl)cc1)[C@@H](C)CC [Example 228, N-{(1S)-2-allyl-2-hydroxy-1-[(1S)-1-methylpropyl]-4-pentenyl}-4-chloro benzenesulfonamide] |  | 1 (1=non-toxic) |  |  | APPI Fold Increase [1, 3]: 1.56 fold; APPI % of Example #98 [1]: 71.57% |
| CC[C@H](C)[C@@H](CO)NS(=O)(=O)c1ccc(F)cc1 [Example 10, 4-fluoro-N-[(1S,2S)-1-(hydroxymethyl)-2-methylbutyl]benzenesulfonamide] |  |  | 3.3 | 1 (1=non-toxic) |  |
| CC[C@H](C)[C@@H](CO)NS(=O)(=O)c1cccc(Cl)c1Cl [Example 23, 2,3-dichloro-N-[(1S,2S)-1-(hydroxymethyl)-2-methylbutyl]benzenesulfonamide] | 3.6 | 1 (1=non-toxic) | 8.3 | 1 (1=non-toxic) | fold induction at 3 µg/mL [1, 3]: 1.67; (%)APPI Toxicity ([2]; Conc 3 μg/ml): 1 (1=non-toxic) |
| CC[C@H](C)[C@@H](CO)NS(=O)(=O)c1cc(F)c(Br)cc1F [Example 20, 4-Bromo-2,5-difluoro-N-[(1S,2S)-1-(hydroxymethyl)-2methylbutyl]benzenesulfonamide] |  |  | 3.3 | 1 (1=non-toxic) |  |
